Test results: patent publication US10308960B2, “Methods for treating cells containing fusion genes” (University of Pittsburgh—of the Commonwealth System of …, priority 2014, dated 2019)
Values after ≈ are worked out from the molar mass of the structure shown.

Columns and labels:
[1] = system: PC3 cells expressing MAN2A1-FER; assay: Killing of MAN2A1-FER expressing PC3 cells by kinase inhibitors; type: cell-based, human; details: for cell death: PC3 transformed with pCDNA4-MAN2A1-FER-FLAG/pCDNA6, MAN2A1-FER expressing, Crisotinib low dosage 24 hours; for specific killing of MAN2A1-FER expressing cells (FIG. 23): expression induced with 5 μg/mL tetracycline
[2] = system: PC3 cells not expressing MAN2A1-FER (Tet−); assay: Killing of PC3 cells not expressing MAN2A1-FER (Tet−) by kinase inhibitors; type: cell-based, human; details: same treatment, cells not expressing the fusion protein (Tet−)
Method: FIG. 23. […] Prostate cancer cell line PC3 was transformed with pCDNA4-MAN2A1-FER-FLAG/pCDNA6. Expression of MAN2A1-FER was induced with 5 μg/mL tetracycline. Cells not treated with tetracycline nor any drug were used as background controls.
The second approach is to target EGFR activation by EGFR inhibitors. These include erlotinib, cetuximab, […], canertinib and […]. Many of these drugs were FDA approved and is widely used in a variety of human solid tumors. To interrogate the effectiveness of EGFR activation interruption in treating prostate cancer, we treated MAN2A1-FER transformed PC3 cells with canertinib.

[3] = system: SLC45A2-AMACR transformed PC3 cells without tetracycline (PC3/SLAM tet−); assay: Ebselen cell growth inhibition, PC3/SLAM tet−; type: cell-based; details: Homo sapiens, PC-3
Text: (§1) FIG. 26. […] Untransformed RWPE1, NIH3T3 cells and SLC45A2-AMACR transformed PC3 cells treated with (PC3/SLAM tet+) or without tetracycline (PC3/SLAM tet−) were applied with indicated concentration of Ebselen. Cell growths relative to unapplied controls were examined.
(§2) Therapeutic targeting at SLC45A2-AMACR using racemase inhibitor. To investigate whether targeting SLC45A2-AMACR is a viable approach to treat prostate cancer, we chose 2 approaches: 1) To intercept SLC45A2-AMACR/SHIP2-Akt pathway with small molecules; and 2) to block the ectopic racemase activity of SLC45A2-AMACR with ebselen or trifluoro-ibuprofen. […] This is probably due to Pten negative status of PC3 cells such that Akt pathway is fully activated regardless the presence of SLC45A2-AMACR. On the other hand, when we applied ebselen, the potent inhibitor of racemase of AMACR, to SLC45A2-AMACR expressing PC3 cells, 5 fold higher sensitivity of cell growth inhibition was found for PC3 cells transformed with pCDNA4-SLC45A2-AMACR-FLAG/pCDNA6 over the controls.

[4] = system: SLC45A2-AMACR transformed PC3 cells treated with tetracycline (PC3/SLAM tet+); assay: Ebselen cell growth inhibition, PC3/SLAM tet+; type: cell-based, human
Text: as §1, §2

[5] = system: RWPE1 cells; assay: Ebselen cell growth inhibition, RWPE1; type: cell-based; details: Homo sapiens, RWPE-1
Text: as §1, §2

[6] = system: NIH3T3 cells; assay: Ebselen cell growth inhibition, NIH3T3; type: cell-based; details: Mus musculus
Text: as §1, §2

[7] = system: PC3 cells containing TMEM135-CCDC67 breakpoint; assay: Ganciclovir cell death after co-transfection of TK donor DNA and nickase-gRNA vector, breakpoint cells; type: cell-based, human
Method: (§3) FIG. 28A-B. Genetic therapy targeting at TMEM135-CCDC67 genome breakpoint.
(§4) The technique described above was applied to cells having the TMEM135-CCDC67 breakpoint. Since none of the fusion genes identified so far was present in prostate cancer cell lines, a TMEM135-CCDC67 genome breakpoint was created that is identical to the prostate cancer sample were analyzed. The expression of the TMEM135-CCDC67 breakpoint was driven by a CMV promoter. Subsequently, a donor DNA was constructed that encompassed HSV-1 TK and the splicing sites of TMEM135 exon 14. When this donor DNA was co-transfected with a vector that expresses gRNA targeting at the TMEM135-CCDC67 breakpoint into PC3 cells containing this genome breakpoint, integration of TK into the genome was identified (FIG. 28A). […] This is remarkable in considering only 5-10% transfection efficiency using conventional liposome method. […] In light of this promising result, both TMEM135-CCDC67-TK cassette and NicKase-gRNATMEM135-CCDC67-BrkPt DNA are now in the process of packaging into Adenovirus. We will infect the recombinant virus into these cells in the future experiments. This will dramatically improve the delivery efficiency in the subsequent animal study and probably human.

[8] = system: PC3 cells without TMEM135-CCDC67 breakpoint; assay: Ganciclovir cell death after co-transfection of TK donor DNA and nickase-gRNA vector, cells without breakpoint; type: cell-based, human; details: same treatment
Method: as §3, §4

[9] = system: PC3 cells harboring no TMEM135-CCDC67 breakpoint (PC3 + pCMV); assay: FACS analysis of apoptotic cells (Annexin V), PC3 without breakpoint; type: cell-based, human; details: PC3, equally infected, ganciclovir up to 100 μg/ml
Method: (§5) FIG. 31A-B. Treatment with nucleotide analogue ganciclovir kills cancer cells expressing EGFP-tk. (A) PC3 or DU145 cells containing the TMEM135-CCDC67 fusion gene were infected with pAD5-Cas9^D10A-gRNA^TMEM135int13-gRNA^CCDC67int9 and pAD-TMEM135int13-EGFP-tk-CCDC67int9. These cells were then incubated with various concentrations of ganciclovir for 24 hours. Cell deaths were then quantified with phycoerythrin labeled Annexin V through flow cytometer. PC3 or DU145 cells harboring no TMEM135-CCDC67 breakpoint were used as controls. (B) Representative sample of cell death induced by ganciclovir on cells infected with pAD5-Cas9^D10A-gRNA^TMEM135int13-gRNA^CCDC67int9 and pAD-TMEM135int13-EGFP-tk-CCDC67int9, and treated with 5 μg/ml ganciclovir. PC3 or DU145 cells harboring no TMEM135-CCDC67 breakpoint were used as controls. Apoptosis was indicated by Annexin V staining.
(§6) Fluorescence activated cell sorting (FACS) analysis of apoptotic cells. The assays were previously described.^8-16 Briefly, the cells treated with pAD5-Cas9^D10A-gRNA^TMEM135int13-gRNA^CCDC67int9/pAD-TMEM135int13-EGFP-tk-CDC67int9, and various concentrations of ganciclovir were trypsinized and washed twice with cold PBS. […] The fluorescence stained cells were analyzed at the fluorescence emission at 533 nm (FL2). […] For each acquisition, 10,000 to 20,000 cells were sorted based on the fluorescence color of the cells. […]

[10] = system: DU145 cells containing TMEM135-CCDC67 breakpoint (DU145 + pCMV-BP); assay: FACS analysis of apoptotic cells (Annexin V), DU145 with breakpoint; type: cell-based; details: DU145 with breakpoint infected with both adenoviruses
Method: as §5, §6

[11] = system: DU145 cells harboring no TMEM135-CCDC67 breakpoint (DU145 + pCMV); assay: FACS analysis of apoptotic cells (Annexin V), DU145 without breakpoint; type: cell-based; details: DU145, equally infected, ganciclovir up to 100 μg/ml
Method: as §5, §6

[12] = system: PC3 cells containing TMEM135-CCDC67 breakpoint (PC3 + pCMV-BP); assay: FACS analysis of apoptotic cells (Annexin V), PC3 with breakpoint; type: cell-based, human; details: PC3 with breakpoint infected with both adenoviruses
Method: as §5, §6

Cn1cnc2c(F)c(Nc3ccc(Br)cc3Cl)c(C(=O)NOCCO)cc21 [AZD6244]
differential killing effect (MAN2A1-FER expressing vs not) ([1]; MEK interception, data not shown): largely moderated and vanished

C[C@@H](Oc1cc(-c2cnn(C3CCNCC3)c2)cnc1N)c1c(Cl)ccc(F)c1Cl [Crisotinib]
killing of cells that do not express MAN2A1-FER [2]: hardly killed
cell death [1]: 31%
lowering of cancer killing EC50 by expression of MAN2A1-FER ([1]; dosage effect analysis, expressing vs not expressing): ~100 fold
specific killing of MAN2A1-FER expressing cells (FIG. 23) [1]: specifically kills cells expressing MAN2A1-FER

O=c1c2ccccc2[se]n1-c1ccccc1 [Ebselen, ebselen]
IC50 [3]: 173 µM
IC50 ([4]; Homo sapiens, PC-3, PC3/SLAM tet+): 37 µM
higher sensitivity of cell growth inhibition over the controls ([4]; PC3 transformed with pCDNA4-SLC45A2-AMACR-FLAG/pCDNA6 vs controls): 5 fold
IC50 [5]: > 300 µM
IC50 [6]: > 300 µM

C=CC(=O)Nc1cc2c(Nc3ccc(F)c(Cl)c3)ncnc2cc1OCCCN1CCOCC1 [canertinib]
killing of cells that do not express MAN2A1-FER [2]: minimal
cell death [1]: 34%
specific killing of MAN2A1-FER expressing cells (FIG. 23) [1]: specifically kills cells expressing MAN2A1-FER

Nc1nc2c(ncn2COC(CO)CO)c(=O)[nH]1 [ganciclovir, 9-(1,3-dihydroxy-2-propoxymethyl)guanine]
increase of cell death ([7]; PC3 with breakpoint co-transfected with donor DNA and gRNA vector, liposome method): 8 fold
specific killing of breakpoint containing cells (FIG. 28B) ([7]; transfected with pTMEM135-CCDC67-TK-GFP and pNicKase-RFP-gRNA-TMEM135-CCDC67-BrkPt): specific killing
cell death [8]: minimal cell death
cell deaths in cells containing no breakpoint [9]: No significant cell deaths
ganciclovir concentration at which killing was at the peak [10]: 5 µg/mL
EC50 ([10]; Homo sapiens, DU-145, 24 hours, read-out: ganciclovir concentration at which killing reached 50% of its maximal level): 0.075 µg/mL (≈ 0.294 µM)
cell deaths in cells containing no breakpoint [11]: No significant cell deaths
EC50 ([12]; Homo sapiens, PC-3, 24 hours, read-out: ganciclovir concentration at which killing reached 50% of its maximal level): 0.075 µg/mL (≈ 0.294 µM)
ganciclovir concentration at which killing was at the peak [12]: 5 µg/mL
